Reference: the NIST ThermoML archive (doi:10.1021/je400134d)
Numbers after ± are expanded uncertainties.

Conditions: 101.33 kPa, Liquid; for speed of sound: Pulse-echo method; for mass density: Vibrating tube method

| Compound | speed of sound (293.15 K) | mass density (293.15 K) | speed of sound (298.15 K) | mass density (298.15 K) | speed of sound (303.15 K) | mass density (303.15 K) |
| --- | --- | --- | --- | --- | --- | --- |
| CNc1ccccc1 [N-methylaniline] | 1582.7 ± 2.2 m/s | 986.444 ± 0.82 kg/m3 | 1564.7 ± 2.2 m/s | 982.487 ± 0.82 kg/m3 | 1545.8 ± 2.2 m/s | 978.541 ± 0.81 kg/m3 |
| C1CCCCC1 [cyclohexane] | 1278 ± 1 m/s | 778.706 ± 0.15 kg/m3 | 1253.6 ± 0.9 m/s | 774.018 ± 0.16 kg/m3 | 1229.9 ± 0.9 m/s | 769.297 ± 0.16 kg/m3 |
| CCCCCCC [heptane] | 1150.9 ± 0.9 m/s | 683.845 ± 0.18 kg/m3 | 1129.6 ± 0.9 m/s | 679.603 ± 0.18 kg/m3 | 1111.2 ± 0.9 m/s | 675.532 ± 0.19 kg/m3 |
| Cc1ccccc1 [toluene] | 1325.8 ± 0.9 m/s | 866.98 ± 0.1 kg/m3 | 1304.4 ± 0.8 m/s | 862.295 ± 0.11 kg/m3 | 1283.7 ± 0.8 m/s | 857.725 ± 0.11 kg/m3 |
